Where a chain is given by its changes, count along the chain named.
Assays:
[1] = target: 5-HT binding protein (5-HTBP), an acetylcholine binding protein (AChBP) from Aplysia californica engineered to bind 5-HT (Aplysia californica); experiment: crystal structure; 5-HTBP at 6 mg/mL mixed with 5 mM varenicline; space group P4(1)2(1)2; 2.3 Å; one pentamer per asymmetric unit
5-HT3 receptor (5-HT3A) [2] = target: T1, 5-HT3 receptor (5-HT3A) (Homo sapiens, UniProt P46098, W178Y); experiment: membrane potential dye fluorescence, FlexStation, transfected HEK293 cells; type: cell-based; details: read-out: varenicline EC50
T1 construct: gene HTR3A; full-length cDNA in pcDNA3.1, transiently expressed in HEK293 cells; homopentamer (also in Xenopus oocytes)
T1 sequence (P46098 24-478 W178Y): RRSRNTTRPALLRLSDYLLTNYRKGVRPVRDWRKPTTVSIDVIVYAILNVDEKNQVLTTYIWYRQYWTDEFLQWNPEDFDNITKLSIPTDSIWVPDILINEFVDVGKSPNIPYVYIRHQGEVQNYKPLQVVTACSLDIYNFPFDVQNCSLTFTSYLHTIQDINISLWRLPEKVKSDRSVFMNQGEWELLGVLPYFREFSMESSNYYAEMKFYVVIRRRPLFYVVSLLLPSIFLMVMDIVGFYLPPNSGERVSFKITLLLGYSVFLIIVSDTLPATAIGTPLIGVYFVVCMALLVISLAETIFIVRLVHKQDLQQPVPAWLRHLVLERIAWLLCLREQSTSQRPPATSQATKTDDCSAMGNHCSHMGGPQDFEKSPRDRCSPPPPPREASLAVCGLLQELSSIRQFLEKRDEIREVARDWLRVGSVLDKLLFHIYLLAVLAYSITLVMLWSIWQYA

5-HT3 receptor (5-HT3A) [3] = target: T2, 5-HT3 receptor (5-HT3A) (Homo sapiens, UniProt P46098, Y89A); experiment: as above; type: cell-based; details: read-out: varenicline EC50
T2 construct: gene HTR3A; full-length cDNA in pcDNA3.1, transiently expressed in HEK293 cells; homopentamer (also in Xenopus oocytes)
T2 sequence (P46098 24-478 Y89A): T1 sequence (P46098 24-478 W178Y) with Y66A, Y155W

5-HTBP = 5-HTBP (Aplysia californica, UniProt Q8WSF8, Q74R/S111E/V159L/K160T); experiment: X-ray crystal structure, […] Å; type: binding; details: co-crystallised, 5 mM varenicline (tartrate) with 6 mg/mL protein; orthosteric site, all five sites
Chain of 5-HTBP (Q8WSF8 entry or part of it Q74R/S111E/V159L/K160T): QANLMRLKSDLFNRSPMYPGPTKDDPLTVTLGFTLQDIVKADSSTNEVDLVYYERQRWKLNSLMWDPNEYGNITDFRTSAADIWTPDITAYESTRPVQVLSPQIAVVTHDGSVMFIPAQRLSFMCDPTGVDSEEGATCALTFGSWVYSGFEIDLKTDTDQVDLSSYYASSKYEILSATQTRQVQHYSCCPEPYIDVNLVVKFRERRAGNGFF

5-HT3 receptor (5-HT3A) [4] = target: T3, 5-HT3 receptor (5-HT3A) (Homo sapiens, UniProt P46098, Y148A); experiment: membrane potential dye fluorescence, FlexStation, transfected HEK293 cells; type: cell-based; details: read-out: varenicline EC50
T3 construct: gene HTR3A; full-length cDNA in pcDNA3.1, transiently expressed in HEK293 cells; homopentamer (also in Xenopus oocytes)
T3 sequence (P46098 24-478 Y148A): T1 sequence (P46098 24-478 W178Y) with Y125A, Y155W

5-HT3 receptor (5-HT3A) [5] = target: T4, 5-HT3 receptor (5-HT3A) (Homo sapiens, UniProt P46098); experiment: as above; type: cell-based; details: read-out: varenicline EC50
T4 construct: gene HTR3A; full-length cDNA in pcDNA3.1, transiently expressed in HEK293 cells; homopentamer (also in Xenopus oocytes)
T4 sequence (P46098 24-478): T1 sequence (P46098 24-478 W178Y) with Y155W

5-HT3 receptor (5-HT3A) [6] = target: T5, 5-HT3 receptor (5-HT3A) (Homo sapiens, UniProt P46098, N123Q); experiment: as above; type: cell-based; details: read-out: varenicline EC50
T5 construct: gene HTR3A; full-length cDNA in pcDNA3.1, transiently expressed in HEK293 cells; homopentamer (also in Xenopus oocytes)
T5 sequence (P46098 24-478 N123Q): T1 sequence (P46098 24-478 W178Y) with N100Q, Y155W

5-HT3 receptor (5-HT3A) [7] = target: T6, 5-HT3 receptor (5-HT3A) (Homo sapiens, UniProt P46098, W85Y); experiment: as above; type: cell-based; details: read-out: varenicline EC50
T6 construct: gene HTR3A; full-length cDNA in pcDNA3.1, transiently expressed in HEK293 cells; homopentamer (also in Xenopus oocytes)
T6 sequence (P46098 24-478 W85Y): T1 sequence (P46098 24-478 W178Y) with W62Y, Y155W

Row | Compound | stoichiometry N [1] | EC50 (5-HT3 receptor (5-HT3A) [2]) [µM] | EC50 (5-HT3 receptor (5-HT3A) [3]) [µM] | X-ray crystal structure, 2.3 Å (5-HTBP) | EC50 (5-HT3 receptor (5-HT3A) [4]) [µM] | EC50 (5-HT3 receptor (5-HT3A) [5]) [µM] | EC50 (5-HT3 receptor (5-HT3A) [6]) [µM] | EC50 (5-HT3 receptor (5-HT3A) [7]) [µM]
1 | 5-HT binding protein (5-HTBP), an acetylcholine binding protein (AChBP) from Aplysia californica engineered to bind 5-HT (natural protein) | 5 |  |  |  |  |  |  | 
2 | c1cnc2cc3c(cc2n1)C1CNCC3C1 [varenicline] |  | 38 | 0.13 | three-dimensional structure of 5-HTBP in complex with varenicline | 9.4 | 0.42 | 26 | 2.9

From article PMC4505686 (ACS Chemical Neuroscience, 2015)
